Values joined by “and” are separate entries in the source; they are usually repeats but may differ in a detail not shown here. Equal entries are not always repeated.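 Cultured in 96-well plates, cells were exposed to test compound for 48 hours across five concentrations. GI50: concentration for 50% inhibition of growth. TGI denotes the concentration required for complete inhibition of growth.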 Where a SMILES comes first, the peptide text is derived from it. The star is where a group is joined. Boc = CC(C)(C)OC(=O)*; OBn = c1ccc(CO*)cc1

Among the test systems are OVCAR-4 ovarian; MCF7 breast; SK-MEL-28 melanoma; OVCAR-5 ovarian; SF-295 CNS; IGROV1 ovarian; 786-0 renal; HOP-92 NSCLC; ACHN renal; RXF 393 renal; OVCAR-8 ovarian; SNB-19 CNS; K-562 leukemia; U251 CNS; UACC-62 melanoma; MDA-MB-231 breast; SW-620 colon; HCC-2998 colon; T-47D breast.
What all share (test): NCI tumour cell line growth inhibition, 48 h

Regarding `O=C1CC(CC(O)[C@@H]2CCCC[C@@H]2O)CC(=O)N1c1ccccc1` (some centres not stated), the TGI with OVCAR-4 ovarian, in the experiment on MCF7 breast, in the experiment on SK-MEL-28 melanoma, in the experiment with OVCAR-5 ovarian, in the experiment on SF-295 CNS and with IGROV1 ovarian was over 100 µM in each case. The TGI with 786-0 renal, with HOP-92 NSCLC, in the experiment on ACHN renal, in the experiment with RXF 393 renal, in the experiment with OVCAR-8 ovarian and in the experiment on SNB-19 CNS was over 100 µM each time. The TGI in the experiment with K-562 leukemia, in the experiment on U251 CNS, in the experiment on UACC-62 melanoma, in the experiment with MDA-MB-231 breast, with SW-620 colon and with HCC-2998 colon was over 100 µM each time.
Turning to `COC(=O)C(C)NP(=O)(N1CC1)N1CC1` (configuration not stated), the TGI with OVCAR-4 ovarian, in the experiment on SK-MEL-28 melanoma, in the experiment with OVCAR-5 ovarian, in the experiment with SF-295 CNS, in the experiment on IGROV1 ovarian and in the experiment with ACHN renal was over 100 µM throughout. Also, the TGI with RXF 393 renal, in the experiment on OVCAR-8 ovarian, in the experiment on SNB-19 CNS, in the experiment on K-562 leukemia, with U251 CNS and in the experiment on UACC-62 melanoma was over 100 µM throughout. The TGI in the experiment with SW-620 colon and in the experiment with HCC-2998 colon was over 100 µM throughout.
For the compound `CCOC(=O)CCC(NC(=O)c1ccc(CNc2nc3ccccc3nc2C(=O)OCC)cc1)C(=O)OCC` (configuration not stated), the TGI with MCF7 breast, in the experiment on SK-MEL-28 melanoma, in the experiment on OVCAR-5 ovarian, in the experiment on SF-295 CNS, with IGROV1 ovarian and in the experiment with 786-0 renal was over 100 µM in each case. The TGI in the experiment on HOP-92 NSCLC, in the experiment with ACHN renal, in the experiment with OVCAR-8 ovarian, with SNB-19 CNS, with K-562 leukemia and with U251 CNS was over 100 µM in each case. The TGI in the experiment with UACC-62 melanoma, in the experiment on MDA-MB-231 breast and with SW-620 colon was over 100 µM each time.
For the compound `COc1cc2c[n+](C)c3c4cc5c(cc4ccc3c2cc1OC)OCO5`, the TGI was over 52.4 µM with OVCAR-4 ovarian; over 82.4 µM in the experiment with SK-MEL-28 melanoma; 4.84 µM with OVCAR-5 ovarian; 57.7 µM with SF-295 CNS; 3.9 µM with IGROV1 ovarian; 21.7 µM with 786-0 renal. Further, the TGI is 6.39 µM in the experiment with HOP-92 NSCLC; over 100 µM with ACHN renal; 49.7 µM in the experiment on RXF 393 renal; 29.9 µM in the experiment with OVCAR-8 ovarian; 21.5 µM in the experiment with SNB-19 CNS; 32.2 µM in the experiment on K-562 leukemia. Besides, the TGI in the experiment with U251 CNS is 2.13 µM; in the experiment on UACC-62 melanoma it was 4.92 µM; in the experiment on MDA-MB-231 breast, over 100 µM; with SW-620 colon, 26 µM; in the experiment on HCC-2998 colon, 7.52 µM.
For the compound `COC1CC(C)C(OC)C2=CC(=O)C=C(NC(=O)/C(C)=C/C=C\C(C)C(OC(N)=O)/C(C)=C\C(C)C1OC)C2=O` (configuration not stated), the TGI is 2.48 µM with OVCAR-4 ovarian; 1.05 µM with SK-MEL-28 melanoma; 17.8 µM with OVCAR-5 ovarian; 13.4 µM in the experiment on SF-295 CNS; 17.8 µM in the experiment on IGROV1 ovarian; 2.87 µM with 786-0 renal. The TGI in the experiment on HOP-92 NSCLC is 10.9 µM; with ACHN renal it was 3.97 µM; in the experiment on RXF 393 renal, 1.68 µM; in the experiment with OVCAR-8 ovarian, 18.3 µM; in the experiment with SNB-19 CNS, 18.1 µM; with K-562 leukemia, 1.19 µM. Besides, the TGI in the experiment with U251 CNS worked out at 11 µM; in the experiment on UACC-62 melanoma it was 14.8 µM; with SW-620 colon, 1.05 µM; in the experiment with HCC-2998 colon, 2.11 µM. Moreover, the GI50 in the experiment on K-562 leukemia is 0.047 µM.
With `Cc1ccc2nc(CN3CCCC(O)C3)cc(=O)n2c1` (configuration not stated), the TGI in the experiment with OVCAR-4 ovarian, in the experiment with MCF7 breast, in the experiment with SK-MEL-28 melanoma, in the experiment with OVCAR-5 ovarian, in the experiment on SF-295 CNS and with IGROV1 ovarian was over 100 µM in each case. Further, the TGI in the experiment on 786-0 renal, with HOP-92 NSCLC, with ACHN renal, with OVCAR-8 ovarian, in the experiment with SNB-19 CNS and with K-562 leukemia was over 100 µM throughout. The TGI in the experiment on U251 CNS, in the experiment on UACC-62 melanoma, in the experiment on MDA-MB-231 breast, in the experiment on SW-620 colon and in the experiment with HCC-2998 colon was over 100 µM each time.
For `COc1ccc(Nc2nnc(CCCCCCCCc3nnc(Nc4ccc(OC)cc4)o3)o2)cc1`, the TGI in the experiment on OVCAR-4 ovarian, with MCF7 breast, in the experiment with SK-MEL-28 melanoma, with OVCAR-5 ovarian, with SF-295 CNS and in the experiment on IGROV1 ovarian was over 100 µM in each case. Further, the TGI in the experiment with 786-0 renal, in the experiment on HOP-92 NSCLC, in the experiment with ACHN renal, with RXF 393 renal, in the experiment on OVCAR-8 ovarian and in the experiment with SNB-19 CNS was over 100 µM in each case. Also, the TGI in the experiment with K-562 leukemia, in the experiment with U251 CNS, in the experiment with MDA-MB-231 breast, with SW-620 colon and in the experiment with HCC-2998 colon was over 100 µM in each case.
In the case of `O=c1[nH]n(Cc2ccccc2Cl)c2ccc([N+](=O)[O-])cc12`, the TGI in the experiment on OVCAR-4 ovarian is over 100 µM; with SK-MEL-28 melanoma it was over 100 µM; in the experiment with OVCAR-5 ovarian, over 100 µM; with IGROV1 ovarian, over 100 µM; with 786-0 renal, over 100 µM; in the experiment on HOP-92 NSCLC it was 52 µM. The TGI in the experiment on ACHN renal was over 100 µM; in the experiment on RXF 393 renal, 57.9 µM; in the experiment with OVCAR-8 ovarian it was over 100 µM; in the experiment with SNB-19 CNS, over 100 µM; with K-562 leukemia, over 100 µM; in the experiment on U251 CNS, over 100 µM. Moreover, the TGI with UACC-62 melanoma, in the experiment on MDA-MB-231 breast, with SW-620 colon and in the experiment on HCC-2998 colon was over 100 µM throughout.
On to `O=C(O)c1ccc(P(=O)(O)c2ccc(C(=O)O)cc2Br)c(Br)c1`, for which the TGI in the experiment on MCF7 breast, with SK-MEL-28 melanoma, in the experiment on SF-295 CNS, in the experiment with IGROV1 ovarian, in the experiment on 786-0 renal and in the experiment with HOP-92 NSCLC was over 100 µM in each case. The TGI with RXF 393 renal, with OVCAR-8 ovarian, in the experiment with SNB-19 CNS, in the experiment with K-562 leukemia, with UACC-62 melanoma and with MDA-MB-231 breast was over 100 µM throughout. Further, the TGI in the experiment on SW-620 colon and in the experiment on HCC-2998 colon was over 100 µM each time.
For `COc1ccc([N+]2=NC(c3ccc([N+](=O)[O-])cc3)=NN(c3ccccc3)C2)cc1`, the TGI with OVCAR-4 ovarian is 75.5 µM and > 100 µM; with SK-MEL-28 melanoma, over 100 µM; in the experiment on OVCAR-5 ovarian it was over 100 µM; in the experiment on SF-295 CNS, over 100 µM; in the experiment with IGROV1 ovarian it was over 100 µM; in the experiment on 786-0 renal, over 100 µM. For the same compound, the TGI in the experiment with ACHN renal is over 100 µM; with RXF 393 renal it was over 100 µM; in the experiment with OVCAR-8 ovarian, over 100 µM; with SNB-19 CNS it was over 100 µM; with K-562 leukemia, 97.3 µM and > 100 µM; in the experiment with U251 CNS, over 100 µM. The TGI with SW-620 colon and in the experiment on HCC-2998 colon was over 100 µM in each case.
As for `COc1cc(C2SCC(=O)N2c2ccccc2Cl)cc(OC)c1OC` (configuration not stated), the TGI with OVCAR-4 ovarian, in the experiment with MCF7 breast, in the experiment with SK-MEL-28 melanoma, in the experiment on OVCAR-5 ovarian, in the experiment on SF-295 CNS and with IGROV1 ovarian was over 100 µM throughout. In addition, the TGI in the experiment on 786-0 renal, in the experiment with HOP-92 NSCLC, with ACHN renal, in the experiment on OVCAR-8 ovarian, in the experiment with SNB-19 CNS and with K-562 leukemia was over 100 µM each time. The TGI in the experiment on U251 CNS, with UACC-62 melanoma, with MDA-MB-231 breast, with SW-620 colon and in the experiment with HCC-2998 colon was over 100 µM in each case.
For `CC(C)C(NC(=O)C(Cc1ccccc1)NC(=O)OC(C)(C)C)C(=O)NCC(=O)OCc1ccccc1` (stereo not drawn) (Boc-Phe-Val-Gly-OBn; configuration not given here), the TGI in the experiment on OVCAR-4 ovarian was 58.8 µM; with SK-MEL-28 melanoma, 30.5 µM; in the experiment on OVCAR-5 ovarian, 28.7 µM; in the experiment with SF-295 CNS, 34.6 µM; in the experiment on IGROV1 ovarian, 27.8 µM; in the experiment on 786-0 renal it was 32.1 µM. Also, the TGI with T-47D breast stood at 36.7 µM; in the experiment on ACHN renal, 31.4 µM; in the experiment with OVCAR-8 ovarian, 35.6 µM; in the experiment with SNB-19 CNS it was 58.4 µM; in the experiment with K-562 leukemia, 23.9 µM; in the experiment with U251 CNS, 32.2 µM. The TGI is 30.9 µM with UACC-62 melanoma, 32.3 µM with MDA-MB-231 breast, 29.1 µM with SW-620 colon and 31.9 µM in the experiment with HCC-2998 colon.
With `COc1c2nc(CCl)[nH]c(=O)c2c(OC)c2nc(CCl)[nH]c(=O)c12`, the TGI with OVCAR-4 ovarian, in the experiment with SK-MEL-28 melanoma, in the experiment with OVCAR-5 ovarian, in the experiment on SF-295 CNS, with IGROV1 ovarian and with 786-0 renal was over 100 µM each time. Moreover, the TGI with HOP-92 NSCLC, with ACHN renal, in the experiment with RXF 393 renal, in the experiment on OVCAR-8 ovarian, in the experiment with SNB-19 CNS and with K-562 leukemia was over 100 µM throughout. The TGI in the experiment on U251 CNS, with UACC-62 melanoma and with SW-620 colon was over 100 µM each time.
